Test results from the NIST ThermoML archive (doi:10.1021/je700260f).
Values joined by “and” are separate entries in the source; they are usually repeats but may differ in a detail not shown here. Identical values can stand only once.

Details: Liquid, Vibrating tube method

FC(C(F)(F)F)C(F)(F)F [1,1,1,2,3,3,3-heptafluoropropane]
Details	mass density
323.15 K, 24369 kPa	1441.6 kg/m3
323.15 K, 24448 kPa	1441.9 kg/m3
323.15 K, 24476 kPa	1442 kg/m3
323.15 K, 24507 kPa	1442.1 kg/m3
323.15 K, 24535 kPa	1442.3 kg/m3
323.15 K, 24630 kPa	1442.7 kg/m3
323.15 K, 25178 kPa	1445.1 kg/m3
323.15 K, 25221 kPa	1445.2 kg/m3
323.15 K, 25254 kPa	1445.3 kg/m3
323.15 K, 25279 kPa	1445.5 kg/m3
323.15 K, 25317 kPa	1445.6 kg/m3
323.15 K, 25347 kPa	1445.8 kg/m3
323.15 K, 25380 kPa	1445.9 kg/m3
323.15 K, 25479 kPa	1446.3 kg/m3
323.15 K, 25518 kPa	1446.5 kg/m3
323.15 K, 25548 kPa	1446.5 kg/m3
323.15 K, 25582 kPa	1446.8 kg/m3
323.15 K, 25619 kPa	1447 kg/m3
323.15 K, 25648 kPa	1447.1 kg/m3
323.15 K, 25678 kPa	1447.1 kg/m3
323.15 K, 25713 kPa	1447.3 kg/m3
323.15 K, 25743 kPa	1447.4 kg/m3
323.15 K, 25772 kPa	1447.5 kg/m3
323.15 K, 25810 kPa	1447.7 kg/m3
323.15 K, 25835 kPa	1447.8 kg/m3
323.15 K, 25868 kPa	1447.9 kg/m3
323.15 K, 25896 kPa	1448 kg/m3
323.15 K, 25923 kPa	1448.1 kg/m3
323.15 K, 26006 kPa	1448.7 kg/m3
323.15 K, 26035 kPa	1448.7 kg/m3
323.15 K, 26099 kPa	1449 kg/m3
323.15 K, 26134 kPa	1449.1 kg/m3
323.15 K, 26161 kPa	1449.1 kg/m3
323.15 K, 26196 kPa	1449.4 kg/m3
323.15 K, 26255 kPa	1449.6 kg/m3
323.15 K, 26288 kPa	1449.7 kg/m3
323.15 K, 27476 kPa	1454.6 kg/m3
323.15 K, 27515 kPa	1454.7 kg/m3
323.15 K, 27549 kPa	1454.9 kg/m3
323.15 K, 27579 kPa	1455 kg/m3
323.15 K, 27618 kPa	1455.2 kg/m3
323.15 K, 27658 kPa	1455.4 kg/m3
323.15 K, 27685 kPa	1455.4 kg/m3
323.15 K, 27721 kPa	1455.7 kg/m3
323.15 K, 27748 kPa	1455.7 kg/m3
323.15 K, 27786 kPa	1455.9 kg/m3
323.15 K, 27821 kPa	1456 kg/m3
323.15 K, 27852 kPa	1456 kg/m3
323.15 K, 27887 kPa	1456.3 kg/m3
323.15 K, 27918 kPa	1456.3 kg/m3
323.15 K, 27943 kPa	1456.5 kg/m3
323.15 K, 27982 kPa	1456.6 kg/m3
323.15 K, 28017 kPa	1456.8 kg/m3
323.15 K, 28049 kPa	1456.7 kg/m3
323.15 K, 28080 kPa	1457 kg/m3
323.15 K, 28115 kPa	1457.1 kg/m3
323.15 K, 28148 kPa	1457.2 kg/m3
323.15 K, 28180 kPa	1457.4 kg/m3
323.15 K, 28217 kPa	1457.6 kg/m3
323.15 K, 28245 kPa	1457.7 kg/m3
323.15 K, 28276 kPa	1457.9 kg/m3
323.15 K, 28309 kPa	1457.9 kg/m3
323.15 K, 28337 kPa	1458 kg/m3
323.15 K, 28375 kPa	1458.1 kg/m3
323.15 K, 28403 kPa	1458.3 kg/m3
323.15 K, 28445 kPa	1458.5 kg/m3
323.15 K, 28474 kPa	1458.6 kg/m3
323.15 K, 28506 kPa	1458.7 kg/m3
323.15 K, 28534 kPa	1458.7 kg/m3
323.15 K, 28571 kPa	1459 kg/m3
323.15 K, 28603 kPa	1459.1 kg/m3
323.15 K, 28633 kPa	1459.2 kg/m3
323.15 K, 28660 kPa	1459.4 kg/m3
323.15 K, 28691 kPa	1459.5 kg/m3
323.15 K, 28718 kPa	1459.6 kg/m3
323.15 K, 28763 kPa	1459.8 kg/m3
323.15 K, 28799 kPa	1459.9 kg/m3
323.15 K, 28837 kPa	1459.9 kg/m3
323.15 K, 28870 kPa	1460.1 kg/m3
323.15 K, 28904 kPa	1460.2 kg/m3
323.15 K, 28935 kPa	1460.4 kg/m3
323.15 K, 28970 kPa	1460.5 kg/m3
323.15 K, 28997 kPa	1460.6 kg/m3
323.15 K, 29033 kPa	1460.8 kg/m3
323.15 K, 29063 kPa	1460.9 kg/m3
323.15 K, 29088 kPa	1460.9 kg/m3
323.15 K, 29121 kPa	1461.1 kg/m3
323.15 K, 29162 kPa	1461.2 kg/m3
323.15 K, 29188 kPa	1461.4 kg/m3
323.15 K, 29756 kPa	1463.5 kg/m3
323.15 K, 29784 kPa	1463.7 kg/m3
323.15 K, 29822 kPa	1463.8 kg/m3
323.15 K, 29860 kPa	1464 kg/m3
323.15 K, 29886 kPa	1464 kg/m3
323.15 K, 29919 kPa	1464.2 kg/m3
323.15 K, 29949 kPa	1464.3 kg/m3
323.15 K, 30616 kPa	1466.8 kg/m3
323.15 K, 30653 kPa	1467 kg/m3
323.15 K, 30689 kPa	1467.1 kg/m3
323.15 K, 30736 kPa	1467.2 kg/m3
323.15 K, 30764 kPa	1467.3 kg/m3
323.15 K, 30805 kPa	1467.5 kg/m3
323.15 K, 30843 kPa	1467.7 kg/m3
323.15 K, 30885 kPa	1467.8 kg/m3
323.15 K, 32658 kPa	1474.5 kg/m3
323.15 K, 32686 kPa	1474.5 kg/m3
323.15 K, 34384 kPa	1480.6 kg/m3
323.15 K, 34387 kPa	1480.4 kg/m3 and 1480.6 kg/m3
323.16 K, 14143 kPa	1389.6 kg/m3
323.16 K, 14163 kPa	1389.5 kg/m3
323.16 K, 14186 kPa	1389.6 kg/m3
323.16 K, 14200 kPa	1389.8 kg/m3
323.16 K, 14366 kPa	1390.8 kg/m3
323.16 K, 14386 kPa	1390.8 kg/m3
323.16 K, 14409 kPa	1390.9 kg/m3
323.16 K, 14427 kPa	1391.1 kg/m3
323.16 K, 14450 kPa	1391.3 kg/m3
323.16 K, 14470 kPa	1391.5 kg/m3
323.16 K, 14492 kPa	1391.6 kg/m3
323.16 K, 14509 kPa	1391.5 kg/m3
323.16 K, 16696 kPa	1404.2 kg/m3
323.16 K, 16719 kPa	1404.2 kg/m3
323.16 K, 16735 kPa	1404.5 kg/m3
323.16 K, 16783 kPa	1404.5 kg/m3
323.16 K, 29984 kPa	1464.4 kg/m3
323.16 K, 30010 kPa	1464.6 kg/m3
323.16 K, 30040 kPa	1464.7 kg/m3
323.16 K, 30071 kPa	1464.8 kg/m3
323.16 K, 30102 kPa	1464.9 kg/m3
323.16 K, 30132 kPa	1465 kg/m3
323.16 K, 30163 kPa	1465.1 kg/m3
323.16 K, 30194 kPa	1465.2 kg/m3
323.16 K, 30221 kPa	1465.4 kg/m3
323.16 K, 30252 kPa	1465.5 kg/m3
323.16 K, 30280 kPa	1465.6 kg/m3
323.16 K, 30311 kPa	1465.6 kg/m3
323.16 K, 30340 kPa	1465.8 kg/m3
323.16 K, 30380 kPa	1466 kg/m3
323.16 K, 30414 kPa	1466.1 kg/m3
323.16 K, 30444 kPa	1466.3 kg/m3
323.16 K, 30470 kPa	1466.4 kg/m3
323.16 K, 30505 kPa	1466.5 kg/m3
323.16 K, 30532 kPa	1466.6 kg/m3
323.16 K, 30554 kPa	1466.6 kg/m3
323.16 K, 30581 kPa	1466.8 kg/m3
333.13 K, 1640 kPa	1225.8 kg/m3
333.13 K, 1661 kPa	1226.3 kg/m3
333.13 K, 1691 kPa	1226.6 kg/m3
333.13 K, 1709 kPa	1227.1 kg/m3
333.13 K, 1736 kPa	1227.6 kg/m3
333.13 K, 1764 kPa	1228 kg/m3
333.13 K, 1789 kPa	1228.4 kg/m3
333.13 K, 1815 kPa	1229 kg/m3
333.13 K, 1839 kPa	1229.7 kg/m3
333.13 K, 1866 kPa	1229.9 kg/m3
333.13 K, 1898 kPa	1230.4 kg/m3
333.13 K, 1924 kPa	1231 kg/m3
333.13 K, 1944 kPa	1231.2 kg/m3
333.13 K, 1976 kPa	1231.8 kg/m3
333.13 K, 2004 kPa	1232.3 kg/m3
333.13 K, 2034 kPa	1232.9 kg/m3
333.13 K, 2056 kPa	1233.2 kg/m3
333.13 K, 2088 kPa	1233.7 kg/m3
333.13 K, 2113 kPa	1234.2 kg/m3
333.13 K, 2138 kPa	1234.6 kg/m3
333.13 K, 2357 kPa	1238.4 kg/m3
333.13 K, 2604 kPa	1242.4 kg/m3
333.13 K, 2744 kPa	1244.5 kg/m3
333.13 K, 2770 kPa	1244.9 kg/m3
333.13 K, 2793 kPa	1245.1 kg/m3
333.13 K, 2828 kPa	1245.9 kg/m3
333.13 K, 2863 kPa	1246.2 kg/m3
333.13 K, 2890 kPa	1246.6 kg/m3
333.13 K, 2915 kPa	1247.1 kg/m3
333.13 K, 2950 kPa	1247.6 kg/m3
333.13 K, 3233 kPa	1251.7 kg/m3
333.13 K, 3261 kPa	1252.3 kg/m3
333.13 K, 3298 kPa	1252.9 kg/m3
333.13 K, 3326 kPa	1253.1 kg/m3
333.13 K, 3358 kPa	1253.7 kg/m3
333.13 K, 3391 kPa	1254.2 kg/m3
333.13 K, 3420 kPa	1254.6 kg/m3
333.13 K, 3448 kPa	1255 kg/m3
333.13 K, 3488 kPa	1255.4 kg/m3
333.13 K, 3517 kPa	1256 kg/m3
333.13 K, 3542 kPa	1256.2 kg/m3
333.13 K, 3575 kPa	1256.7 kg/m3
333.13 K, 3608 kPa	1257.2 kg/m3
333.13 K, 3641 kPa	1257.6 kg/m3
333.13 K, 3670 kPa	1258.2 kg/m3
333.13 K, 3699 kPa	1258.5 kg/m3
333.13 K, 3726 kPa	1258.9 kg/m3
333.13 K, 3767 kPa	1259.4 kg/m3
333.13 K, 3793 kPa	1259.7 kg/m3
333.13 K, 3826 kPa	1260.3 kg/m3
333.13 K, 3860 kPa	1260.8 kg/m3
333.13 K, 3894 kPa	1261.2 kg/m3
333.13 K, 3924 kPa	1261.5 kg/m3
333.13 K, 3950 kPa	1261.9 kg/m3
333.13 K, 3984 kPa	1262.2 kg/m3
333.13 K, 4010 kPa	1262.9 kg/m3
333.13 K, 4041 kPa	1263.1 kg/m3
333.13 K, 4072 kPa	1263.5 kg/m3
333.13 K, 4105 kPa	1264 kg/m3
333.13 K, 4143 kPa	1264.4 kg/m3
